Common to all, as to type: biochemical
For one test, the target named is T1, CHEK1 (Homo sapiens, UniProt O14757).
T1 sequence (O14757 1-476): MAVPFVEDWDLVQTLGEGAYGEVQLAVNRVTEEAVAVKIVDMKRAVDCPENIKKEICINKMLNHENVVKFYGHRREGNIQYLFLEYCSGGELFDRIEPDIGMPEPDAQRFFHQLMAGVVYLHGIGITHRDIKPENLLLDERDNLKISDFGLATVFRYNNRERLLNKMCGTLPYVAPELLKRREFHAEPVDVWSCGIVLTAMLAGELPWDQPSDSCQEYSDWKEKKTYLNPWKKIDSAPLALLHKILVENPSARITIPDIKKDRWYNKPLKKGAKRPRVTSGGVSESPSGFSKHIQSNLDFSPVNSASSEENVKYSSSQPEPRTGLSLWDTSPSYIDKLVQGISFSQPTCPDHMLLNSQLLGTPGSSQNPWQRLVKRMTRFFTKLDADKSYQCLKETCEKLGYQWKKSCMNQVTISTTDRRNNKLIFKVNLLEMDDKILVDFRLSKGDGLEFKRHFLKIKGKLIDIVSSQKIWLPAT
The test is described as follows: Kinome profiling CHEK1. The note with it: read-out: Inhibitory activity CHEK1; for inhibition at 0.1 µM: 100 nM. The protocol: (§1) . The kinome-wide selectivity was determined following the methods previously reported by Mohedas et al., ACS Chem Biol 2013, 8, 1291-1302 and Sanvitale et al., PLoS One 2013, 8, e62721.

The target of another test is TRKB (Homo sapiens, UniProt Q16620). The test is described as follows: Kinome profiling TRKB. The note with it: read-out: Inhibitory activity TRKB; for inhibition at 0.1 µM: 100 nM. On the procedure:
as §1

A further test deals with PYK2 (Homo sapiens, UniProt Q14289). The test is described as follows: Kinome profiling PYK2. The note with it: read-out: Inhibitory activity PYK2; for inhibition at 0.1 µM: 100 nM. The protocol:
as §1

For a further test, the target named is CAMK2δ (Homo sapiens, UniProt Q13557). The test is described as follows: Kinome profiling CAMK2δ. The note with it: read-out: Inhibitory activity CAMK2δ; for inhibition at 0.1 µM: 100 nM. On the procedure: as §1
Sequence of CAMK2δ (Q13557 whole entry): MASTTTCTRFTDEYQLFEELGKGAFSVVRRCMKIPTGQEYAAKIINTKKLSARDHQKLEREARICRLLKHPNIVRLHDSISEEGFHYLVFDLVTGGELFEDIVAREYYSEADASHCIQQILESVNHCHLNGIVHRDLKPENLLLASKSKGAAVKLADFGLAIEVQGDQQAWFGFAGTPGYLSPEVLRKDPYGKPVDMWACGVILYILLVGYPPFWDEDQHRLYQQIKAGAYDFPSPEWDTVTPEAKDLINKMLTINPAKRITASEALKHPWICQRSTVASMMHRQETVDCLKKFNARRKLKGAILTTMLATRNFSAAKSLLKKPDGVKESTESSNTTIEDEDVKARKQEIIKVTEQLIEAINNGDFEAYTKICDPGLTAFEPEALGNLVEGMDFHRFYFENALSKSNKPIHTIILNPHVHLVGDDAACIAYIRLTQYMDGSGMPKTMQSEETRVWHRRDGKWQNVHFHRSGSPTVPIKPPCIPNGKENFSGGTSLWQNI
The target of another test is EPH-A4 (Homo sapiens, UniProt P54764). Nature of the test: Kinome profiling EPH-A4. The note with it: read-out: Inhibitory activity EPH-A4; for inhibition at 0.1 µM: 100 nM. The protocol:
as §1

A further test concerns the target PIM-1 (Homo sapiens, UniProt P11309). The test is described as follows: Kinome profiling PIM-1. The note with it: read-out: Inhibitory activity PIM-1; for inhibition at 0.1 µM: 100 nM. The protocol:
as §1

The next test has as its target T2, NEK9 (Homo sapiens, UniProt Q8TD19).
T2 sequence (Q8TD19 1-979): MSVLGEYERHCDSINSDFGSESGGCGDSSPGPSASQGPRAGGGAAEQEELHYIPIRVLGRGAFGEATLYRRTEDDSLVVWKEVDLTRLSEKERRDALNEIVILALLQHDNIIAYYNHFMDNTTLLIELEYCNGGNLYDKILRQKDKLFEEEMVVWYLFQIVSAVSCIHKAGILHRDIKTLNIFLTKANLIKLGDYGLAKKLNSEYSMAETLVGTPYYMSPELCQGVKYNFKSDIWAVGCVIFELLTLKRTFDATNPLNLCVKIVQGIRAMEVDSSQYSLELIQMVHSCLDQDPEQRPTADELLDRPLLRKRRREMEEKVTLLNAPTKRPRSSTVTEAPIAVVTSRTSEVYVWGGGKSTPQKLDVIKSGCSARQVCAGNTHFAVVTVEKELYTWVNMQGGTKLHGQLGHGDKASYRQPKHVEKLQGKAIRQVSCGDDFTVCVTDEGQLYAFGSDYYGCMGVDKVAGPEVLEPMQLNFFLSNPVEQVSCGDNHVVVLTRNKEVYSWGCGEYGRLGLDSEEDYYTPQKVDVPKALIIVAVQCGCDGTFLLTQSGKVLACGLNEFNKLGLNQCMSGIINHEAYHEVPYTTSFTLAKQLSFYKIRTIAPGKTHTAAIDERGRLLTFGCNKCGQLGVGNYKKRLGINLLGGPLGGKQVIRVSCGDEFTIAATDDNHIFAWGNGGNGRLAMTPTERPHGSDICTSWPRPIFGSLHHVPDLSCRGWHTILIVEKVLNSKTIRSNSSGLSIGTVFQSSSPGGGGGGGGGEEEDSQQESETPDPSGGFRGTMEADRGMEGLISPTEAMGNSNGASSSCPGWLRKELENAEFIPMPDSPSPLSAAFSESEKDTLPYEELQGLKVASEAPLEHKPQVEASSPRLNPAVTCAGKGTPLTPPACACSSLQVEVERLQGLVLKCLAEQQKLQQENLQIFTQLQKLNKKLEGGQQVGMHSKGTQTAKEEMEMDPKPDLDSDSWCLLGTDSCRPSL
The test is described as follows: Kinome profiling NEK9. The note with it: read-out: Inhibitory activity NEK9; for inhibition at 0.1 µM: 100 nM. The protocol:
as §1

The record followed here is patent US20170190705A1, “Compositions and Methods for Inhibiting BMP” (THE BRIGHAM AND WOMAN'S HOSPITAL, INC., priority 2014, published 2017).

Sequence of PYK2 (Q14289 whole entry): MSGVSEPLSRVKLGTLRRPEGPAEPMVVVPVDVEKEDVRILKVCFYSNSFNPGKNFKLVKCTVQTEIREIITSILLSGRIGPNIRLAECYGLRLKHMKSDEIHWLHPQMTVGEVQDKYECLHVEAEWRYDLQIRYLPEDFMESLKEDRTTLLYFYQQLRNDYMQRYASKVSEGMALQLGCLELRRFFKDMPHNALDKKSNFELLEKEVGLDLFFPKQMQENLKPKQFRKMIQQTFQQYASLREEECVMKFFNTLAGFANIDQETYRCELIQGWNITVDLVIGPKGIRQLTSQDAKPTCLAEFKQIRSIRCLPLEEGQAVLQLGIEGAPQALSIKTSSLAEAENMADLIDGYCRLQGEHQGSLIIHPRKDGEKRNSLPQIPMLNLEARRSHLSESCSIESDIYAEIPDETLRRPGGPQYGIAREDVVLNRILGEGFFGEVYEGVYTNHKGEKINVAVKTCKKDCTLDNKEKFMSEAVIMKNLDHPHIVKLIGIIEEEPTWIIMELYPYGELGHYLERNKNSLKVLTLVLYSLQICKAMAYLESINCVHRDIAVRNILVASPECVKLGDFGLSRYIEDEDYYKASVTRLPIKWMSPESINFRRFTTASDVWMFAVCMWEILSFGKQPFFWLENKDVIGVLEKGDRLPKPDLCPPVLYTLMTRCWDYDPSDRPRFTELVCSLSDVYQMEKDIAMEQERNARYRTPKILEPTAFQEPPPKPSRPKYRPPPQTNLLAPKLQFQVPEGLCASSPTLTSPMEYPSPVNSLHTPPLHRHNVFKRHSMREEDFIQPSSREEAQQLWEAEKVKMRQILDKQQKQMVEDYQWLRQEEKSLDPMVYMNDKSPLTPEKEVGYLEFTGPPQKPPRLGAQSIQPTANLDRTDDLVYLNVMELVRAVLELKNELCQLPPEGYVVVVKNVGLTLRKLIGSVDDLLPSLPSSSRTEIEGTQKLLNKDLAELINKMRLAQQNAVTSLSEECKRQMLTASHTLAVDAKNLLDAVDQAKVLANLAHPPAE
Sequence of PIM-1 (P11309 whole entry): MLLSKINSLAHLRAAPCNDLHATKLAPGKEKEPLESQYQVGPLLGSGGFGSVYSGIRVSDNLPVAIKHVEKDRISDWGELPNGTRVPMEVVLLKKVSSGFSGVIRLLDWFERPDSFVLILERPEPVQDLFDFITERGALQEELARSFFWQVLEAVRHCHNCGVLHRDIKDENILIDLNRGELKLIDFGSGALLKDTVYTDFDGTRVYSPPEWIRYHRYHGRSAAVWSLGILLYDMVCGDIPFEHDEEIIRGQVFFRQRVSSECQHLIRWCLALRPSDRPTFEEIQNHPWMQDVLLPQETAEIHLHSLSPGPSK
Sequence of EPH-A4 (P54764 20-986): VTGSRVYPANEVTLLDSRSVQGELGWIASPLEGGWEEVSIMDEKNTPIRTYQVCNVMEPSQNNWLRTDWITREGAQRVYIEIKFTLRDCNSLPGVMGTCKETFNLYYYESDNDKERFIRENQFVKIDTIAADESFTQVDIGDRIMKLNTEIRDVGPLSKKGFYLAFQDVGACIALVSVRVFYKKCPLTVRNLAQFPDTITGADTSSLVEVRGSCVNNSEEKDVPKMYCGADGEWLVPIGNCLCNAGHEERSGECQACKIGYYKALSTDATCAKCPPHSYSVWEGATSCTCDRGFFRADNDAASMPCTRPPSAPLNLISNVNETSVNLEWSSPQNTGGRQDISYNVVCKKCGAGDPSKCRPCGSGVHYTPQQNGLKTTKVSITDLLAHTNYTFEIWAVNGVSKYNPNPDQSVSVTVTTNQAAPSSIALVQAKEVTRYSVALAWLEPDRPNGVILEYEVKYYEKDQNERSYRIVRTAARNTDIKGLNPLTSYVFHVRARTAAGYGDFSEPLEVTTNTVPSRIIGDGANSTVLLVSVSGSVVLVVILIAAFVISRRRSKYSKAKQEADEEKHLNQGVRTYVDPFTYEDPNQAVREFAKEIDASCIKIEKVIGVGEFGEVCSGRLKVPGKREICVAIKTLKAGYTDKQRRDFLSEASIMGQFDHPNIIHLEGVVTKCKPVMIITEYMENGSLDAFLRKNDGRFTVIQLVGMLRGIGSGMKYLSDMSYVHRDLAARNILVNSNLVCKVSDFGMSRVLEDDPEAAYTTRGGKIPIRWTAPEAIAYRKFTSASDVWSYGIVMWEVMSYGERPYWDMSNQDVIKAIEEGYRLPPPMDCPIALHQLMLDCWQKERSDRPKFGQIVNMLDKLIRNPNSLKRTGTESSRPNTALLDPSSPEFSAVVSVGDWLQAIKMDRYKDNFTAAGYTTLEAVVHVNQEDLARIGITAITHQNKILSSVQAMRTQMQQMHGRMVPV
Sequence of TRKB (Q16620 32-822): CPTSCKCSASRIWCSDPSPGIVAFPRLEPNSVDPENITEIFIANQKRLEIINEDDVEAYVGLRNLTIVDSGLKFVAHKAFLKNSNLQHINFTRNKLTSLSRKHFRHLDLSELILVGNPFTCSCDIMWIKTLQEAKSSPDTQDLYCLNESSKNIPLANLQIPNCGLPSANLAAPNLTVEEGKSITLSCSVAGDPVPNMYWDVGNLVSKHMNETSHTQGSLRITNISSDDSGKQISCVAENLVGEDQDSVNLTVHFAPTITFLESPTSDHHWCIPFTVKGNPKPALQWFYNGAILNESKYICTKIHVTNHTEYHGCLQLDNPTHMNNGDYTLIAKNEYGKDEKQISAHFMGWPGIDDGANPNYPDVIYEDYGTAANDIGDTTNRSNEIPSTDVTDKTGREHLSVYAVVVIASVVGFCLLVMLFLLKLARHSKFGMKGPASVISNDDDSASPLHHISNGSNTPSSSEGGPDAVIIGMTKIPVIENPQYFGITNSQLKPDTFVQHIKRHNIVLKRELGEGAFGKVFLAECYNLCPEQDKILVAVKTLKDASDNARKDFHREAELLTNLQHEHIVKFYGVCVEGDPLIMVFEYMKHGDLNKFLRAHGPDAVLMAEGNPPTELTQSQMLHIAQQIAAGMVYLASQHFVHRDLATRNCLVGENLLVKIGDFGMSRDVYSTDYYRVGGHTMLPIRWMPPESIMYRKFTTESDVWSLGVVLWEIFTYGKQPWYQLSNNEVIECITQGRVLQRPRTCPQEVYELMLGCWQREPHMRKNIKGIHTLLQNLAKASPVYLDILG

Take `COc1cc(-c2cc(-c3ccc(N4CCNCC4)cc3)cnc2N)cc(OC)c1OC` [Compound 15, 5-(4-(piperazin-1-yl)phenyl)-3-(3,4,5-trimethoxyphenyl)pyridin-2-amine]: the inhibition at 0.1 µM at CHEK1 was 2%; on TRKB, 2%; at PYK2, 10%; on CAMK2δ, 1%; on EPH-A4, -1%; at PIM-1, 0%. Besides, the inhibition at 0.1 µM on NEK9 was found to be 3%. The inhibition at 1 µM on CHEK1 is 6%; at TRKB it was 3%; on PYK2, 14%; at CAMK2δ it was 3%; at EPH-A4 it was 45%; on PIM-1, -1%. Besides, at NEK9, the inhibition at 1 µM is 6%.
Take `COc1cc(-c2cc(-c3ccc(N4CCNCC4)cc3)cnc2C)cc(OC)c1OC` [Compound 10, 1-(4-(6-methyl-5-(3,4,5-trimethoxyphenyl)pyridin-3-yl)phenyl)piperazine]: the inhibition at 0.1 µM at CHEK1 came to 4%; at TRKB, 3%; on PYK2 it was 1%; at CAMK2δ, 1%; at EPH-A4, 7%; on PIM-1, 1%. Also, on NEK9, the inhibition at 0.1 µM is 1%. Besides, the inhibition at 1 µM was -3% at CHEK1; 3% at TRKB; 5% on PYK2; 1% on CAMK2δ; 5% on EPH-A4; 0% at PIM-1. Moreover, the inhibition at 1 µM on NEK9 was determined as 1%.
